{"source": "paper PMC6562610", "about": "“Inhibition of Hedgehog Signaling in Fibroblasts, Pancreatic, and Lung Tumor Cells by Oxy186, an Oxysterol Analogue with Drug-Like Properties” (Cells, 2019)", "key": {"[1]": {"test_system": "8XGliBS-luciferase reporter responsive to Gli1 in NIH3T3-E1 cells", "test": "CM-induced 8XGliBS-luciferase reporter assay", "format": "cell-based, mouse", "conditions": "72 h treatment", "description": "NIH3T3-E1 and Sufu^−/− cells cultured in 24-well plates at 90% confluence were transiently transfected with 0.1 µg of Gli response-element reporter (pGL3b-8xGli-Luciferase) plasmid, and 10 ng of pTK-Renilla-Luciferase plasmid with or without co-transfection with 10 ng of Gli1 overexpression vector, pSRα-Gli1, as previously described using Lipofectamine LTX Plus transfection reagent (Invitrogen). Twenty-four h after transfection, cells were treated with test agents for 72 h. Then the firefly and Renilla luciferase activities were measured using a dual luciferase kit (Promega, Madison, WI, USA) and a GloMax-96 Microplate Luminometer. The firefly luciferase activities were normalized to the Renilla luciferase activities. Data are reported as the mean of triplicate determinations ± SD.\nFigure 3 Inhibition of ligand-induced Hedgehog signaling. NIH3T3 cells were pretreated for 2 h with the oxysterols or various inhibitors, as indicated, in DMEM containing 5% FBS. Next, cells were treated with CAPAN-1 conditioned medium (CM) in the absence or presence of oxysterols or inhibitors. After 72 h, RNA was extracted and analyzed by Q-RT-PCR for the expression of Hh target genes Gli1 (a,b,d) and Ptch1 (c), and normalized to Oaz1 expression. […] Luciferase activity was measured and normalized to the Renilla luciferase activity. […]"}, "[2]": {"test_system": "Shh expression in CAPAN-1 cells", "test": "Inhibition of Shh expression in CAPAN-1 cells, Q-RT-PCR", "format": "cell-based, human", "conditions": "72 h", "description": "NIH3T3-E1 fibroblasts were obtained from ATCC (Manassas, VA) and cultured, as previously described. CAPAN-1 and PANC-1 human pancreatic cancer cells were obtained from ATCC and cultured in Dulbecco’s Modified Eagle Medium (DMEM) containing 10% heat-inactivated fetal bovine serum (FBS) (Hyclone Laboratories, Logan, UT, USA) and antibiotics, as previously described. The human lung cancer cell lines A549 and H2030 were obtained from ATCC and cultured in RPMI-1640 containing 10% FBS. The human hepatoma cell line HepG2 was obtained from ATCC and cultured in DMEM containing 10% FBS. Mouse embryonic fibroblasts (MEFs) from suppressor of fused (Sufu) null mice (Sufu^−/−) were provided by Dr. Philip Beachy of Stanford University and cultured in DMEM containing 10% FBS. Gant61, SB431542 and vismodegib (GDC0449) were obtained from Cayman Chemical, HPI-1 was obtained from Abcam. For experiments, cells were treated in a medium containing 5% FBS.\nTotal RNA was extracted with the RNeasy Plus Mini Kit from Qiagen, according to the manufacturer’s instructions. One microgram of RNA was reverse-transcribed using an iScript Reverse Transcription Supermix from Bio-Rad, to make single-stranded cDNA. The cDNAs were then mixed with Qi SYBR Green Supermix (Bio-Rad, Hercules, CA, USA) for quantitative RT-PCR assay using a Bio-Rad I-cycler IQ quantitative thermocycler. All PCR samples were prepared in triplicate wells in a 96-well plate. […] Fold changes in gene expression were calculated using the ΔΔCt method. […]\nFigure 4 Inhibition of Gli and Shh expression in (a) PDAC (PANC-1) and (b,c) human lung cancer cells (A549 and H2030, respectively) by Oxy186. Cells were treated with the compounds as indicated in DMEM or RPMI 1640 containing 5% FBS for (a) 48 or (b,c) 72 hours, then RNA was extracted and analyzed by Q-RT-PCR for the expression of Gli1 and normalized to GAPDH expression. (d) CAPAN-1 cells were treated with the compounds, as indicated, in DMEM containing 5% FBS for 72 h, then RNA was extracted and analyzed by Q-RT-PCR for the expression of Shh and normalized to GAPDH expression. […]"}, "A549 cells": {"test_system": "A549 cells", "test": "Cell counting assay, A549", "format": "cell-based, human", "conditions": "96 h", "description": "A549 and H2030 cells cultured in 12-well plates at 20% confluence were treated with Oxy186, HPI-1, Gant61, or GDC0449 for 96 hours and then trypsinized and suspended in fresh medium. An aliquot of cell suspension was applied to a hemocytometer and counted under a microscope.\nFigure 6 Inhibition of human pancreatic and lung cancer cell proliferation by Oxy186. (a,c) A549, (b) and (d) H2030, (e) PANC-1, and (f) CAPAN-1 cells were treated with the compounds as indicated in RPMI 1640 (a–d) or DMEM (e,f) containing 5% FBS for 96 h and then were trypsinized and counted. Data from a representative experiment are reported as the mean of triplicate determinations ± SD (* p < 0.05 vs. Control; ** p < 0.01 vs. control)."}, "LXR target gene Abca1": {"test_system": "LXR target gene Abca1", "test": "Induction of LXR target gene Abca1 in NIH3T3 cells, Q-RT-PCR", "format": "cell-based, mouse", "description": "Total RNA was extracted with the RNeasy Plus Mini Kit from Qiagen, according to the manufacturer’s instructions. One microgram of RNA was reverse-transcribed using an iScript Reverse Transcription Supermix from Bio-Rad, to make single-stranded cDNA. The cDNAs were then mixed with Qi SYBR Green Supermix (Bio-Rad, Hercules, CA, USA) for quantitative RT-PCR assay using a Bio-Rad I-cycler IQ quantitative thermocycler. All PCR samples were prepared in triplicate wells in a 96-well plate. After 40 cycles of PCR, melt curves were examined in order to ensure primer specificity. Fold changes in gene expression were calculated using the ΔΔCt method. Primers used for mouse were as follows: Oaz1 (5’-CCACTGCTTCGCCAGAGAG-3’) and (5’-CCCGGACCCAGGTTACTA-3’), Gli1 (5’-[…]-3’ and 5’-[…]-3’), Ptch1 (5’-CCATCGGCGACAAGAACC-3’ and 5’-[…]-3’), Hip (5’-[…]-3’ and 5’-[…]-3’), and Abca1 (5’-[…]-3’ and 5’-[…]-3’). Primers used for human were as follows: SREBP1c (5’-CGCTCCTCCATCAATGACA-3’ and 5’-[…]-3’), GAPDH (5’-[…]-3’ and 5’-[…]-3’), SHH (5’-CGGAGCGAGGAAGGGAAAG-3’) and (5’-[…]-3’), and GLI1 (5’-GAAGCCGAGCCGAGTATC-3’ and 5’-[…]-3’).\nFigure 7 Induction of LXR target gene expression by Oxy186 and LXR agonist TO901317 (TO). (a) NIH3T3 cells and (b) HepG2 cells were treated with DMEM containing 5% FBS in the presence or absence of TO (2 µM) or Oxy186 (10 µM). […] Data from a representative experiment are reported as the mean of triplicate determinations ± SD (** p < 0.01 vs. control)."}}, "note": "Entries after “also recorded” stand apart in the source; their conditions may differ.", "data": [{"smiles": "C[C@]12CC[C@H](O)C[C@@H]1CC[C@@H]1[C@@H]2CC[C@@]2(C)[C@H]1CC[C@@H]2[C@](C)(O)CCc1ccc(F)cc1", "note": "[Oxy186, (3S,5S,8R,9S,10S,13S,14S,17S)-17-((R)-4-(4-fluorophenyl)-2-hydroxybutan-2-yl)-10,13-dimethylhexadecahydro-1H-cyclopenta[a]phenanthren-3-ol]", "values": [{"measurement": "Inhibition of CM-induced 8XGliBS-luciferase reporter activity", "setting": "[1]", "value": "significantly inhibited"}, {"measurement": "Inhibition of Shh expression", "setting": "[2]", "value": "robustly inhibited; also recorded: significant inhibition"}, {"measurement": "Inhibition of cell proliferation", "setting": "A549 cells; 10 µM", "value": "significantly inhibited"}, {"measurement": "IC50", "setting": "A549 cells; Homo sapiens, read-out: IC50 for inhibition of cell proliferation", "value": 5, "unit": "µM"}, {"measurement": "LXR agonism (Figure 8b summary)", "setting": "LXR target gene Abca1; Figure 8b drug-like properties summary", "value": "Weak LXR agonist"}, {"measurement": "Induction of expression of LXR target gene Abca1", "setting": "LXR target gene Abca1; NIH3T3-E1 cells, up to 10 µM", "value": "only modestly induced"}]}]}
